{
  "source": "patent US4101676A",
  "about": "“Diphenylpropylamines to treat depression” (Beecham Group Limited, priority 1973, dated 1978)",
  "origin": "cited, not measured here",
  "test_system": "central nervous system",
  "conditions": "Barron et al, J. Pharm. Pharmacol., 17, 509 (1965); cited from earlier work",
  "data": [
    {"smiles": "CN(C)CCC(O)(c1ccccc1)c1ccccc1", "note": "[1:1-diphenyl-3-dimethylaminopopan-1-ol]", "values": [
      {"measurement": "effects on the central nervous system", "value": "considerable effects on the central nervous system"},
      {"measurement": "side effects", "value": "anorexia, diuresis, ataxia and drowsiness"}
    ]}
  ]
}
